Laboratory results as given in patent publication US7396844B1, “Benzamidine derivatives” (Ajinomoto Co., Inc., priority 1997, dated 2008).
Read-outs that look alike come from different tables or passages of the source.

Key:
[1] = target: T1, activated human blood coagulation factor X (Homo sapiens, UniProt P00742); experiment: Determination of activity of inhibiting the activated blood coagulation factor X; format: biochemical; settings: same manner as Example 93; for IC50: read-out: Activity of inhibiting activated blood coagulation factor X (pIC50) (converted)
T1 construct: purchased Enzyme Research Co
T1 sequence (P00742 235-488 limits assumed): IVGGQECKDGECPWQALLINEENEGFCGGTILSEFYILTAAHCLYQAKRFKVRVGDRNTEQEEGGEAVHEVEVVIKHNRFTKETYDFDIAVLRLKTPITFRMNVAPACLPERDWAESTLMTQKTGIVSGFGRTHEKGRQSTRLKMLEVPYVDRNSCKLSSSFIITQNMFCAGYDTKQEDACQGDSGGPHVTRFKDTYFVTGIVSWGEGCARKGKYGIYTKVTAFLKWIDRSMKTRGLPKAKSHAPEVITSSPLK
T1 sequence (P00742 41-179 partner limits assumed): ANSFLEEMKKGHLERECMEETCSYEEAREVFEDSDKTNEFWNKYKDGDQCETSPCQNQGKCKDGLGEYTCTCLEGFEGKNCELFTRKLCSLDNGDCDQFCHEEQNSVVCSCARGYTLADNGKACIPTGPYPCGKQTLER
Protocol: 130 μl of 100 mM Tris-HCl buffer adjusted to pH 8.4 was added to 10 μl of an aqueous solution of a compound to be tested. Then 10 μl of a 0.5 unit/ml solution of activated human blood coagulation factor X (a product of Enzyme Research Co.) in Tris-HCl buffer hydrochloride of pH 8.4 was added to the resultant mixture. After the incubation at room temperature for 10 minutes, 50 μl of a solution of N-benzoyl-L-isoleucyl-L-glutamyl-glycyl-L-arginyl-p-nitroanilide hydrochloride (a product of Peptide Institute, Inc.) adjusted to 0.8 mM with Tris-HCl buffer (pH 8.4) was added thereto. The absorbance was determined and then the initial reaction rate was determined. A control was prepared in the same manner as that described above except that the solution of the compound to be tested was replaced with 10 μl of Tris-HCl buffer adjusted to pH 8.4.

human thrombin = target: T2, human thrombin (Homo sapiens, UniProt P00734); experiment: Determination of thrombin-inhibiting activity; format: biochemical; settings: same manner as Example 94
T2 construct: human thrombin (a product of SIGMA Co.); purchased SIGMA Co
Protocol: 130 μl of 100 mM Tris-HCl buffer adjusted to pH 8.4 was added to 10 μl of an aqueous solution of a test compound. Then 10 μl of a solution of human thrombin (a product of SIGMA Co.) adjusted to 2 units/ml with Tris-HCl buffer of pH 8.4 was added to the resultant mixture. […] The absorbance was determined and then the initial reaction rate was determined. A control was prepared in the same manner as that described above except that the solution of the compound to be tested was replaced with 10 μl of tris hydrochloride buffer adjusted to pH 8.4.

blood plasma = experiment: Determination of blood anticoagulating activity by prothrombin time (PT); format: biochemical, human; parameters: key: -log of concentration doubling control PT
Protocol: The blood anticoagulating activity was determined by a prothrombin time (PT) determination method. The PT was determined as follows: The blood was taken from healthy people. […] The blood plasma was separated by the centrifugation. 5 μl of DMSO solution containing a test compound was added to 45 μl of the blood plasma. After the incubation at room temperature for 2 minutes, a test tube containing the blood plasma solution was placed in Sysmex CA-3000 fully automatic blood coagulation determination device (a product of Toa Medical Electronics Co., Ltd), and incubated at 37° C. for 3 minutes. […] PT was automatically determined with the device. A sample containing 5 μl of DMSO in place of the solution of the test compound was used as the control. The negative logarithm (PT2) of the concentration of the test compound which elongated PT of the control to the twice as long was determined, and employed as the index of the blood anticoagulating activity.

[2] = Table 2, read-out: Thrombin-inhibiting activity (pIC50) (converted)
[3] = Table 2, negative logarithm of concentration that elongated PT of the control to twice as long, plasma of healthy people
[4] = Table 3, read-out: Thrombin inhibiting activity (pIC50) (converted)
[5] = Table 3, same manner as Example 184, negative logarithm of concentration doubling PT

Compound | IC50 ([1]; Table 2) | IC50 (human thrombin; [2]) | Blood anticoagulating activity (PT2) (blood plasma; [3]) | IC50 ([1]; Table 3) | IC50 (human thrombin; [4]) | Blood anticoagulating activity (PT2) (blood plasma; [5]) | Activity of inhibiting activated blood coagulation factor X (pIC50) ([1]; Table 3) | Thrombin inhibiting activity (pIC50) (human thrombin; Table 3)
N=C(N)c1cccc(OC[C@H](Cc2ccc(OC3CCNCC3)cc2)NS(=O)(=O)c2ccccc2)c1.O=C(O)C(F)(F)F.O=C(O)C(F)(F)F [Compound of Ex. 154, 3-[(2S)-2-(benzenesulfonylamino)-3-[4-(4-piperidyloxy)phenyl]propoxy]benzamidine bistrifluoroacetate] | 1580 nM | 79.4 µM | 5.1 | – | – | – | – | –
CC(=N)N1CCC(Oc2ccc(C[C@@H](COc3cccc(C(=N)N)c3)NS(=O)(=O)c3ccccc3)cc2)CC1.O=C(O)C(F)(F)F.O=C(O)C(F)(F)F [Compound of Ex. 158, 3-[(2S)-2-(benzenesulfonylamino)-3-[4-(1-acetimidoyl-4-piperidyloxy)phenyl]propoxy]benzamidine bistrifluoroacetate] | 158 nM | 50.1 µM | 6.2 | – | – | – | – | –
CC(=N)N1CCC(Cc2ccc(C[C@@H](COc3cccc(C(=N)N)c3)NS(=O)(=O)c3ccccc3)cc2)CC1.O=C(O)C(F)(F)F.O=C(O)C(F)(F)F [Compound of Ex. 165, 3-[(2S)-2-(benzenesulfonylamino)-3-[4-[(1-acetimidoyl-4-piperidyl)methyl]phenyl]propoxy]benzamidine bistrifluoroacetate] | 200 nM | 100 µM | 6 | – | – | – | – | –
N=C(N)c1cccc(OC[C@H](Cc2ccc(OC3CCNCC3)cc2)NS(=O)(=O)c2ccc(C(=O)O)cc2)c1.O=C(O)C(F)(F)F.O=C(O)C(F)(F)F [Compound of Ex. 167, 4-[(2S)-1-[4-(4-piperidyloxy)phenyl]-3-(3-amidinophenoxy)-2-propylsulfamoyl]benzoic acid bistrifluoroacetate] | 501 nM | 126 µM | 5 | – | – | – | – | –
CC(=N)N1CCC(Oc2ccc(C[C@@H](COc3cccc(C(=N)N)c3)NS(=O)(=O)c3ccc(C(=O)O)cc3)cc2)CC1.O=C(O)C(F)(F)F.O=C(O)C(F)(F)F [Compound of Ex. 168, 4-[(2S)-1-[4-(1-acetimidoyl-4-piperidyloxy)phenyl]-3-(3-amidinophenoxy)-2-propylsulfamoyl]benzoic acid bistrifluoroacetate] | 31.6 nM | 79.4 µM | 6.2 | – | – | – | – | –
CC(=N)N1CCC(Oc2ccc(C[C@@H](COc3cccc(C(=N)N)c3)NS(=O)(=O)c3ccc(/C=C/C(=O)O)cc3)cc2)CC1.O=C(O)C(F)(F)F.O=C(O)C(F)(F)F [Compound of Ex. 171, (2E)-3-[4-[(2S)-1-[4-(1-acetimidoyl-4-piperidyloxy)phenyl]-3-(3-amidinophenoxy)-2-propylsulfamoyl]phenyl]acrylic acid bistrifluoroacetate] | 100 nM | 39.8 µM | 6 | – | – | – | – | –
CC(=N)N1CCC(Oc2ccc(C[C@@H](CCc3cccc(C(=N)N)c3)NS(=O)(=O)c3ccccc3)cc2)CC1.O=C(O)C(F)(F)F.O=C(O)C(F)(F)F [Compound of Ex. 175, 3-[(3R)-3-(benzenesulfonylamino)-4-[4-(1-acetimidoyl-4-piperidyloxy)phenyl]butyl]benzamidine bistrifluoroacetate] | 251 nM | 63.1 µM | 5.9 | – | – | – | – | –
CC(=N)N1CCC(Oc2ccc(C[C@H](NS(=O)(=O)c3ccccc3)C(=O)Nc3cccc(C(=N)N)c3)cc2)CC1.O=C(O)C(F)(F)F.O=C(O)C(F)(F)F [Compound of Ex. 178, (2S)—N-(3-amidinophenyl)-2-(benzenesulfonylamino)-3-[4-(1-acetimidoyl-4-piperidyloxy)phenyl]propionamide bistrifluoroacetate] | 501 nM | > 398 µM | 5.7 | – | – | – | – | –
N=C(N)c1ccc(CC(=O)C(=O)O)c(OC[C@H](Cc2ccc(OC3CCNCC3)cc2)NS(=O)(=O)c2ccccc2)c1.O=C(O)C(F)(F)F.O=C(O)C(F)(F)F [Compound of Ex. 180, 3-[4-amidino-2-[(2S)-2-(benzenesulfonylamino)-3-[4-(4-piperidyloxy)phenyl]propoxy]phenyl]-2-oxopropionic acid bistrifluoroacetate] | 158 nM | 3.16 µM | 5.7 | – | – | – | – | –
CC(=N)N1CCC(Oc2ccc(C[C@@H](COc3cc(C(=N)N)ccc3CC(=O)C(=O)O)NS(=O)(=O)c3ccccc3)cc2)CC1.O=C(O)C(F)(F)F.O=C(O)C(F)(F)F [Compound of Ex. 181, 3-[4-amidino-2-[(2S)-3-[4-(1-acetimidoyl-4-piperidyloxy)phenyl]-2-(benzenesulfonylamino)propoxy]phenyl]-2-oxopropionic acid bistrifluoroacetate] | 20 nM | 1.58 µM | 6.7 | – | – | – | – | –
N=C(N)c1ccc(C(=O)N[C@@H](COc2cc(C(=N)N)ccc2CC(=O)C(=O)O)CC(=O)O)cc1.O=C(O)C(F)(F)F.O=C(O)C(F)(F)F [Compound of Ex. 186, (3R)-3-(4-amidinobenzoylamino)-4-[5-amidino-2-(2-carboxy-2-oxoethyl)phenoxy]butanoic acid bistrifluoroacetate] | – | – | – | 20 nM | 251 µM | 5.9 | – | –
CN(C)C(=O)c1ccc(C(=O)N[C@@H](COc2cc(C(=N)N)ccc2CC(=O)C(=O)O)CC(=O)O)cc1.O=C(O)C(F)(F)F [Compound of Ex. 188, (3R)-4-[5-amidino-2-(2-carboxy-2-oxoethyl)phenoxy]-3-(4-dimethylcarbamoylbenzoylamino)butanoic acid trifluoroacetate] | – | – | – | 7.94 nM | 398 µM | 5.7 | – | –
N=C(N)c1ccc(CC(=O)C(=O)O)c(OC[C@@H](CC(=O)O)NC(=O)c2ccc(C(=O)N3CCCC3)cc2)c1.O=C(O)C(F)(F)F [Compound of Ex. 191, (3R)-4-[5-amidino-2-(2-carboxy-2-oxoethyl)phenoxy]-3-[4-(pyrrolidine-1-carbonyl)benzoylamino]butanoic acid trifluoroacetate] | – | – | – | 3.98 nM | 200 µM | 6.0 | – | –
CC(=N)N1CCC(Oc2ccc(C(=O)N[C@@H](COc3cc(C(=N)N)ccc3CC(=O)C(=O)O)CC(=O)O)cc2)CC1.O=C(O)C(F)(F)F.O=C(O)C(F)(F)F [Compound of Ex. 193, (3R)-4-[5-amidino-2-(2-carboxy-2-oxoethyl)phenoxy]-3-[4-(1-(1-iminoethyl)piperidyl-4-oxy)benzoylamino]butanoic acid bistrifluoroacetate] | – | – | – | – | – | 6.2 | 7.9 | 3.4
N=C(N)c1ccc(CC(=O)C(=O)O)c(OC[C@@H](CC(=O)O)NC(=O)c2ccc(S(=O)(=O)N3CCCC3)cc2)c1.O=C(O)C(F)(F)F [Compound of Ex. 195, (3R)-4-[5-amidino-2-(2-carboxy-2-oxoethyl)phenoxy]-3-[4-(pyrrolidine-1-sulfonyl)benzoylamino]butanoic acid trifluoroacetate] | – | – | – | 31.6 nM | 31.6 µM | 5.9 | – | –
